Measured values as given in paper PMC4444084, “An Antioxidant Extract of the Insectivorous Plant Drosera burmannii Vahl. Alleviates Iron-Induced Oxidative Stress and Hepatic Injury in Mice” (PLoS ONE, 2015).
Converted amounts (≈) assume the structure as drawn. “And” between values parts separate entries of the source, which are not always exact repeats. Equal entries are not always repeated. Marks after values point to notes of the source that are not given here. Each block holds one molecule with its values, some of them ahead of it.

Assays:
[1] = Iron chelation assay (Fe2+-ferrozine complex formation); type: biochemical; settings: for Iron chelating activity IC50: Fe2+-ferrozine, HEPES pH 7.2; for in vitro iron chelation ability (in words): Fe2+-ferrozine complex
Procedure: The Fe^2+ chelating activity of DBME, catechin, methyl gallate, purpurin, reserpine, rutin and tannic acid was evaluated according to standard methods. HEPES buffer (20 mM, pH 7.2), DBME (0–120 μg/ml) and a positive control EDTA (0–20 μg/ml) were separately added to a 12.5 μM ferrous sulfate solution, and 75 μM ferrozine was added to start the reaction. The mixture was shaken vigorously and left standing for 20 min at room temperature. Next, the absorbance was measured at 562 nm. All tests were performed six times.

[2] = WST-1 cytotoxicity assay; type: cell-based, human; settings: human, WI-38 human lung fibroblast cells, WI-38 cells, WST-1
Procedure: (§1) The human lung fibroblast (WI-38) cell line was purchased from the National Centre for Cell Science (NCCS), India. Cells were grown in DMEM supplemented with 10% (v/v) fetal bovine serum (FBS), 100 U/ml penicillin G, 50 μg/ml gentamycin sulfate, 100 μg/ml streptomycin and 2.5 μg/ml amphotericin B. The cell line was maintained in a CO2 incubator at 37°C in a humidified atmosphere containing 5% CO2. Cell proliferation and cell viability were quantified using the WST-1 Cell Proliferation Reagent, Roche diagnostics, according to previously described methods. […] Briefly, WI-38 cells (1 × 10^4 cells/well) were treated with DBME, purpurin, catechin, tannic acid, reserpine, methyl gallate or rutin at doses ranging from 0–120 μg/ml for 48 hours in 96-well culture plates. After treatment, 10 μl of the WST-1 cell proliferation reagent was added to each well followed by 2 hours of incubation at 37°C. Cell proliferation and viability were quantified by measuring the absorbance at 460 nm using a microplate ELISA reader […] EX (Thermo Electron Corporation, USA).

[3] = system: WI-38 cells; assay: WST-1 cytotoxicity assay; type: cell-based, human; settings: 48 hours; for cytotoxicity against normal cells (in words): 0-120 μg/ml; for Cytotoxicity assay IC50: WST-1
Procedure: as §1

[4] = Peroxynitrite scavenging; type: biochemical
Procedure: The RNS scavenging activity of DBME was determined using nitric oxide and peroxynitrite radical scavenging assays.

[5] = Superoxide anion scavenging; type: biochemical
Procedure: (§2) The ROS scavenging ability of DBME was determined using multiple stable ROS radical scavenging assays, such as hydroxyl, superoxide, hypochlorous radical, singlet oxygen and hydrogen peroxide assays by standard procedures.

[6] = Singlet oxygen scavenging; type: biochemical
Procedure: as §2

[7] = Hydrogen peroxide scavenging; type: biochemical
Procedure: as §2

[8] = system: iron overloaded mice; assay: Serum markers (ALAT, ASAT, ALP, bilirubin) in iron overloaded mice; type: in vivo, Swiss albino mice; settings: D: desirox 20 mg/kg b.w. oral 21 days
Procedure: (§3) Mice were divided into six groups of six mice each. One group was labeled as blank (B) and received normal saline. The other five groups received five intraperitoneal injections of iron-dextran at a dose of 100 mg/kg b.w. (one dose every two days). One iron-dextran group (C) was administered normal saline, and the other four groups were orally treated with either 50 mg/kg b.w. (S50), 100 mg/kg b.w. (S100), 200 mg/kg b.w. (S200) DBME or 20 mg/kg b.w. desirox (D) for 21 days beginning on the day following the first iron-dextran injection.
(§4) After treatment, mice were fasted overnight on the 21st day and anesthetized with ethyl ether. Blood was collected by cardiac puncture. Serum from the blood samples was separated using a cooling centrifuge and stored at -80°C until analysis. The liver was washed with ice-cold saline and divided into three parts. One major portion of the liver was cut, weighed and homogenized in 10 volumes of 0.1 M phosphate buffer (pH 7.4) containing 5 mM EDTA and 0.15 M NaCl. The sample was centrifuged at 8,000 g for 30 min at 4°C. The protein concentration in the supernatant was estimated according to Lowry's method using BSA as a standard. The remaining samples were stored at -80°C until further analysis. Another portion of the liver was weighed and digested using an equivolume mixture of sulfuric acid and nitric acid for iron content analysis. A final liver sample was used for histopathological studies.
Alanine amino transferase (ALAT), aspartate amino transferase (ASAT), and bilirubin levels were measured in serum samples using commercial kits from Merck, Mumbai, India. Serum alkaline phosphatase (ALP) was estimated using a kit supplied by Sentinel diagnostics, Italy. The serum ferritin level was measured using an enzyme-linked immunosorbent assay (Monobind Inc., USA) according to the manufacturer’s instructions.

[9] = system: iron overloaded mice; assay: Liver antioxidants (SOD, CAT, GST, GSH) in iron overloaded mice; type: in vivo, Swiss albino mice; settings: D: desirox 20 mg/kg b.w. oral 21 days
Procedure: as §3, §4
Superoxide dismutase (SOD), catalase (CAT) activity, glutathione-S-transferase (GST) and reduced glutathione (GSH) levels were assayed according to previously reported methods.

[10] = Hydroxyl radical scavenging; type: biochemical
Procedure: as §2

[11] = DPPH radical scavenging assay; type: biochemical
Procedure: The total antioxidant capacity of DBME was evaluated by an ABTS•^+ radical cation decolorization assay in comparison to a trolox standard and 2,2-diphenyl-1-picrylhydrazyl (DPPH) radical scavenging assay. The reducing power of DBME was determined using a previously described method.

[12] = Hypochlorous acid scavenging; type: biochemical
Procedure: as §2

Molecule: C[C@@H]1O[C@@H](OC[C@H]2O[C@@H](Oc3c(-c4ccc(O)c(O)c4)oc4cc(O)cc(O)c4c3=O)[C@H](O)[C@@H](O)[C@@H]2O)[C@H](O)[C@H](O)[C@H]1O [Rutin, rutin]
- IC50 at 48 h [2]: 1230 ± 195 mg/L (≈ 2020 µM)
- cytotoxicity against normal cells (in words) [3]: negligible cytotoxicity

Molecule: O=C(O)c1cc(O)c(O)c(O)c1 [Gallic acid, gallic acid]
- Peroxynitrite (ONOO-) scavenging IC50 [4]: 876 ± 570 mg/L

Molecule: Oc1cc(O)c2c(c1)OC(c1ccc(O)c(O)c1)C(O)C2 (single isomer, unassigned; (+)) [Catechin, (+) catechin]
- in vitro iron chelation ability (in words) [1]: failed to chelate iron
- Iron chelating activity IC50 [1]: 1940.22 ± 179.61 mg/L
- Cytotoxicity assay IC50 [3]: 753.56 ± 31.99 mg/L

Molecule: O=C(O)CN(CCN(CC(=O)O)CC(=O)O)CC(=O)O [EDTA, Ethylenediamine tetraacetic acid]
- Iron chelating activity IC50 [1]: 1.27 ± 0.05 mg/L

Molecule: O=C(O)c1ccc(-n2nc(-c3ccccc3O)nc2-c2ccccc2O)cc1 [D, desirox]
- ALAT % Change ([8]; change vs B group): 52.79%
- ALP % Change ([8]; change vs B group): 84.44%
- ASAT % Change ([8]; change vs B group): 17.36%
- Bilirubin % Change ([8]; change vs B group): 10.97%
- ALAT ([8]; iron overloaded mice): 23.29 ± 1.09 ^c ^f Unit/l and 23.29 ± 1.09^cf Unit/l
- ALP ([8]; iron overloaded mice): 61.01 ± 2.44 ^c ^f Unit/l and 61.01 ± 2.44^cf Unit/l
- ASAT ([8]; iron overloaded mice): 79.35 ± 4.36 ^a ^f Unit/l and 79.35 ± 4.36^af Unit/l
- Bilirubin ([8]; iron overloaded mice): 1.68 ± 0.15 ^f mg/dl
- CAT % Change ([9]; change vs B group): 26.09%
- GSH % Change ([9]; change vs B group): 5.13%
- GST % Change ([9]; change vs B group): 35.42%
- SOD % Change ([9]; change vs B group): 15.31%
- CAT ([9]; iron overloaded mice): 16.14 ± 3.87 ^c ^f Unit/mg protein and 16.14 ± 3.87^cf Unit/mg protein
- GSH ([9]; iron overloaded mice): 0.48 ± 0.02 ^a ^f μg/mg protein and 0.48 ± 0.02^af μg/mg protein
- GST ([9]; iron overloaded mice): 3.72 ± 0.36 ^c ^f Unit/mg protein and 3.72 ± 0.36^cf Unit/mg protein
- SOD ([9]; iron overloaded mice): 0.47 ± 0.05 ^a ^f Unit/mg protein and 0.47 ± 0.05^af Unit/mg protein

Molecule: O=C1O[C@H]([C@@H](O)CO)C(O)=C1O [Ascorbic acid, ascorbic acid]
- DPPH IC50 [11]: 5.29 ± 0.28 mg/L
- Hypochlorous acid (HOCl) scavenging IC50 [12]: 235.96 ± 5.75 mg/L

Second part, led by results:

- Iron chelating activity IC50 [1]: 252.37 ± 4.08 mg/L
Molecule: O=C1c2ccccc2C(=O)c2c(O)c(O)cc(O)c21 [Purpurin, purpurin]
- IC50 at 48 h [2]: 1470 ± 291 mg/L (≈ 5730 µM)
- cytotoxicity against normal cells (in words) [3]: negligible cytotoxicity

- Iron chelating activity IC50 [1]: 50.22 ± 0.85 mg/L
Molecule: tannic acid
- in vitro iron chelation ability (in words) [1]: most effective chelator
- Cytotoxicity assay IC50 [3]: 581.03 ± 64.97 mg/L

- Superoxide anion scavenging IC50 [5]: 42.06 ± 1.35 mg/L
Molecule: O=c1c(O)c(-c2ccc(O)c(O)c2)oc2cc(O)cc(O)c12 [Quercetin, quercetin]

- Singlet oxygen scavenging IC50 [6]: 46.16 ± 1.16 mg/L
Molecule: O=C(O)CCCC[C@@H]1CCSS1 (racemic) [Lipoic acid, lipoic acid]

- Hydrogen peroxide (H2O2) scavenging IC50 [7]: 3240 ± 300 mg/L
Molecule: CC(=O)C(=O)[O-].[Na+] [Sodium pyruvate, sodium pyruvate]

- Iron chelating activity IC50 [1]: 3095.13 ± 438.00 mg/L
Molecule: COC(=O)[C@H]1[C@H]2C[C@@H]3c4[nH]c5cc(OC)ccc5c4CCN3C[C@H]2C[C@@H](OC(=O)c2cc(OC)c(OC)c(OC)c2)[C@@H]1OC [Reserpine, reserpine]
- in vitro iron chelation ability (in words) [1]: failed to chelate iron
- IC50 at 48 h [2]: 44.8 ± 2.06 mg/L (≈ 73.6 µM)
- cytotoxicity against normal cells (in words) [3]: most toxic compound

- Hydroxyl radical (OH) scavenging IC50 [10]: 571.45 ± 20.12 mg/L
Molecule: OC[C@@H](O)[C@@H](O)[C@H](O)[C@H](O)CO [Mannitol, mannitol]

- Iron chelating activity IC50 [1]: 70.86 ± 1.20 mg/L
Molecule: COC(=O)c1cc(O)c(O)c(O)c1 [Methyl gallate, methyl gallate]
- IC50 at 48 h [2]: 344 ± 31.3 mg/L (≈ 1870 µM)
